Assay results reported in the NIST ThermoML archive (doi:10.1016/j.jct.2015.12.031).

Legend:
[1] = mn = molality of the nth substance listed, in mol/kg; conditions: 86.5 kPa, Liquid; for speed of sound: Frequency=3 MHz, Sing-around technique in a fixed-path interferometer; for mass density: Vibrating tube method
[2] = refractive index (Na D-line) (dimensionless); mn = molality of the nth substance listed, in mol/kg; conditions: 86.5 kPa, Liquid, Standard Abbe refractometry

CCCCCCCCn1cc[n+](C)c1.[Br-] [1-methyl-3-octylimidazolium bromide] + c1ccsc1
Conditions | mass density, [1] [kg/m3] | refractive index, [2] | speed of sound, [1] [m/s]
288.15 K, m2 = 0 | 1179.37 | 1.525 | 1605.2
288.15 K, m2 = 0.0087 | 1179.17 | 1.5248 | 1603.7
288.15 K, m2 = 0.022 | 1178.88 | 1.5245 | 1601.5
288.15 K, m2 = 0.032 | 1178.66 | 1.5242 | 1599.9
288.15 K, m2 = 0.0435 | 1178.43 | 1.524 | 1598.3
288.15 K, m2 = 0.0556 | 1178.18 | 1.5238 | 1596.8
288.15 K, m2 = 0.0663 | 1177.97 | 1.5235 | 1595.7
288.15 K, m2 = 0.0821 | 1177.68 | 1.5232 | 1594.3
288.15 K, m2 = 0.0923 | 1177.49 | 1.5229 | 1593.4
288.15 K, m2 = 0.107 | 1177.22 | 1.5226 | 1592.3
288.15 K, m2 = 0.1464 | 1176.57 | 1.5221 | 1590.2
288.15 K, m2 = 0.1765 | 1176.08 | 1.5216 | 1588.8
293.15 K, m2 = 0 | 1176.17 | 1.5236 | 1581.9
293.15 K, m2 = 0.0087 | 1175.97 | 1.5233 | 1581
293.15 K, m2 = 0.022 | 1175.68 | 1.5231 | 1579.5
293.15 K, m2 = 0.032 | 1175.46 | 1.5228 | 1578.6
293.15 K, m2 = 0.0435 | 1175.23 | 1.5226 | 1577.6
293.15 K, m2 = 0.0556 | 1174.97 | 1.5223 | 1576.5
293.15 K, m2 = 0.0663 | 1174.75 | 1.522 | 1575.7
293.15 K, m2 = 0.0821 | 1174.47 | 1.5217 | 1574.6
293.15 K, m2 = 0.0923 | 1174.27 | 1.5214 | 1573.8
293.15 K, m2 = 0.107 | 1174.01 | 1.5211 | 1572.9
293.15 K, m2 = 0.1464 | 1173.34 | 1.5205 | 1571.1
293.15 K, m2 = 0.1765 | 1172.85 | 1.52 | 1570.2
298.15 K, m2 = 0 | 1172.98 | 1.5221 | 1561.9
298.15 K, m2 = 0.0087 | 1172.78 | 1.5219 | 1561.3
298.15 K, m2 = 0.022 | 1172.48 | 1.5216 | 1560.3
298.15 K, m2 = 0.032 | 1172.27 | 1.5213 | 1559.7
298.15 K, m2 = 0.0435 | 1172.02 | 1.521 | 1558.9
298.15 K, m2 = 0.0556 | 1171.78 | 1.5207 | 1558.2
298.15 K, m2 = 0.0663 | 1171.57 | 1.5203 | 1557.5
298.15 K, m2 = 0.0821 | 1171.26 | 1.52 | 1556.5
298.15 K, m2 = 0.0923 | 1171.07 | 1.5197 | 1555.9
298.15 K, m2 = 0.107 | 1170.8 | 1.5193 | 1555.1
298.15 K, m2 = 0.1464 | 1170.16 | 1.5187 | 1553.5
298.15 K, m2 = 0.1765 | 1169.7 | 1.5181 | 1552.3
303.15 K, m2 = 0 | 1169.86 | 1.5206 | 1542.8
303.15 K, m2 = 0.0087 | 1169.65 | 1.5205 | 1542.3
303.15 K, m2 = 0.022 | 1169.35 | 1.5202 | 1541.6
303.15 K, m2 = 0.032 | 1169.13 | 1.5199 | 1541.1
303.15 K, m2 = 0.0435 | 1168.88 | 1.5196 | 1540.7
303.15 K, m2 = 0.0556 | 1168.64 | 1.5192 | 1540.1
303.15 K, m2 = 0.0663 | 1168.42 | 1.5189 | 1539.6
303.15 K, m2 = 0.0821 | 1168.12 | 1.5185 | 1539.1
303.15 K, m2 = 0.0923 | 1167.93 | 1.5182 | 1538.5
303.15 K, m2 = 0.107 | 1167.67 | 1.5179 | 1538
303.15 K, m2 = 0.1464 | 1167.05 | 1.5171 | 1536.6
303.15 K, m2 = 0.1765 | 1166.59 | 1.5166 | 1535.7

CCCCCCn1cc[n+](C)c1.[Br-] [3-hexyl-1-methyl-1H-imidazolium bromide] + c1ccsc1
Conditions | mass density, [1] [kg/m3] | refractive index, [2] | speed of sound, [1] [m/s]
288.15 K, m2 = 0 | 1231.02 | 1.5282 | 1639.4
288.15 K, m2 = 0.0186 | 1230.37 | 1.5277 | 1638.2
288.15 K, m2 = 0.0221 | 1230.25 | 1.5276 | 1638
288.15 K, m2 = 0.0358 | 1229.81 | 1.5273 | 1637.2
288.15 K, m2 = 0.0433 | 1229.58 | 1.5271 | 1636.8
288.15 K, m2 = 0.0632 | 1228.97 | 1.5266 | 1635.7
288.15 K, m2 = 0.0727 | 1228.69 | 1.5264 | 1635.2
288.15 K, m2 = 0.0952 | 1228.1 | 1.5259 | 1634
288.15 K, m2 = 0.1142 | 1227.69 | 1.5255 | 1633
288.15 K, m2 = 0.137 | 1227.21 | 1.5251 | 1631.7
288.15 K, m2 = 0.1603 | 1226.74 | 1.5247 | 1630.7
288.15 K, m2 = 0.1869 | 1226.31 | 1.5242 | 1629.8
293.15 K, m2 = 0 | 1227.43 | 1.5268 | 1610.4
293.15 K, m2 = 0.0186 | 1226.77 | 1.5261 | 1609.5
293.15 K, m2 = 0.0221 | 1226.65 | 1.526 | 1609.3
293.15 K, m2 = 0.0358 | 1226.19 | 1.5257 | 1608.7
293.15 K, m2 = 0.0433 | 1225.96 | 1.5255 | 1608.4
293.15 K, m2 = 0.0632 | 1225.37 | 1.5251 | 1607.5
293.15 K, m2 = 0.0727 | 1225.11 | 1.5249 | 1607.1
293.15 K, m2 = 0.0952 | 1224.52 | 1.5244 | 1606.1
293.15 K, m2 = 0.1142 | 1224.09 | 1.524 | 1605.5
293.15 K, m2 = 0.137 | 1223.63 | 1.5234 | 1604.5
293.15 K, m2 = 0.1603 | 1223.19 | 1.5228 | 1603.7
293.15 K, m2 = 0.1869 | 1222.77 | 1.5223 | 1602.9
298.15 K, m2 = 0 | 1223.74 | 1.5254 | 1587.1
298.15 K, m2 = 0.0186 | 1223.07 | 1.5247 | 1586.3
298.15 K, m2 = 0.0221 | 1222.95 | 1.5246 | 1586.2
298.15 K, m2 = 0.0358 | 1222.49 | 1.5242 | 1585.7
298.15 K, m2 = 0.0433 | 1222.25 | 1.5239 | 1585.4
298.15 K, m2 = 0.0632 | 1221.65 | 1.5233 | 1584.6
298.15 K, m2 = 0.0727 | 1221.38 | 1.523 | 1584.3
298.15 K, m2 = 0.0952 | 1220.8 | 1.5224 | 1583.6
298.15 K, m2 = 0.1142 | 1220.33 | 1.5219 | 1582.9
298.15 K, m2 = 0.137 | 1219.88 | 1.5213 | 1582.2
298.15 K, m2 = 0.1603 | 1219.44 | 1.5208 | 1581.7
298.15 K, m2 = 0.1869 | 1219 | 1.5201 | 1581
303.15 K, m2 = 0 | 1220.35 | 1.5237 | 1568.7
303.15 K, m2 = 0.0186 | 1219.67 | 1.5227 | 1568.1
303.15 K, m2 = 0.0221 | 1219.55 | 1.5226 | 1568
303.15 K, m2 = 0.0358 | 1219.09 | 1.5223 | 1567.6
303.15 K, m2 = 0.0433 | 1218.84 | 1.5221 | 1567.4
303.15 K, m2 = 0.0632 | 1218.25 | 1.5217 | 1566.8
303.15 K, m2 = 0.0727 | 1217.98 | 1.5215 | 1566.6
303.15 K, m2 = 0.0952 | 1217.4 | 1.5211 | 1566
303.15 K, m2 = 0.1142 | 1216.96 | 1.5207 | 1565.5
303.15 K, m2 = 0.137 | 1216.51 | 1.5202 | 1564.9
303.15 K, m2 = 0.1603 | 1216.07 | 1.5197 | 1564.5
303.15 K, m2 = 0.1869 | 1215.66 | 1.5191 | 1564
